# Where two headings read alike, the source gives them in different places.
# Assays:
# [1] = system: BJ (human fibroblast) cells; assay: Cytotoxicity (MTT) against BJ cell line; format: cell-based; conditions: cytotoxicity of extracts and fractions, read-out: BJ (human fibroblast) IC50 (μg/ml ± SD)
# [2] = system: 3T3 (mouse fibroblast) cells; assay: Cytotoxicity (MTT) against 3T3 cell line; format: cell-based; conditions: cytotoxicity of extracts and fractions, read-out: 3T3 (mouse fibroblast) IC50 (μg/ml ± SD)
# [3] = system: 3T3 (mouse fibroblast) cells; assay: Cytotoxicity (MTT) against 3T3 cell line; format: cell-based; conditions: for IC50: Mus musculus, Fibroblast, cytotoxicity of compounds 1-9, read-out: 3T3 (mouse fibroblast) IC50 (μM ± SD)
# Procedure: (§1) The cytotoxicity of the test compounds against normal cell lines was evaluated through MTT (3-[4, 5-dimethylthiazole-2-yl]-2, 5-diphenyl-tetrazolium bromide] colorimetric assay in 96-well flat-bottomed microplates. The 3T3 (mouse fibroblast) and BJ (human fibroblast) were cultured Dulbecco’s Modified Eagle Medium, supplemented with 5% of fetal bovine serum (FBS), 100 IU/mL of penicillin and 100 μg/mL of streptomycin in 75 cm2 flasks, and then incubated in 5% CO2 incubator at 37°C. The growing cells were counted by using a haemocytometer, and diluted with the particular medium. The 5x10^4 cells/mL of the cell culture was prepared, and a sample […] was introduced into each well. The medium was removed after overnight incubation, and 200 μL of fresh medium was added with different concentrations of compounds (1–30 μM). After 48 hours, 200 μL MTT (0.5 mg/mL) was added, and the incubation was further continued for 4 hrs. After that time, 100 μL of DMSO was added to each well. The absorbance was measured using a micro plate reader (Spectra Max Plus, Molecular Devices, CA, USA) at 570 nm for the extent of MTT reduction to formazan within the cells. The cytotoxicity was recorded as CC50 against cells by using Soft- Max Pro software. Doxorubicin and cycloheximide were used as positive control. The experiments were run in triplicate.
# [4] = Cytotoxicity (MTT) against 3T3 cell line; format: cell-based, mouse; conditions: pure compounds; mouse fibroblast, 48 h; read-out: 3T3 Cell line CC50 (μM± SD)
# Procedure: as §1
# L. tropica promastigotes = assay: Promastigote growth inhibition assay (MTT), L. tropica clinical isolates; format: cell-based, Leishmania tropica
# Procedure: (§2) L. major and L. tropica (Clinical isolates) promastigotes were grown at […] in RPMI-1640 (Sigma) medium containing 10% of heat-inactivated (56°C for 30 min) fetal bovine serum. Cell viability was initially evaluated by wet mount method by observing the live cells under compound microscope. Parasite growth was assessed by counting live / motile promastigotes in a Neubauer chamber. Viable cell count was used for the further experimentations (treatments).
# (§3) The promastigotes in their log phase were used in 96-well plates. 1 × 10^6 wild-type and resistant promastigotes were dispensed in 96 96-well plates, and incubated with tested compounds at a range concentration of 200–10 μM at 27°C for 72 h. After incubation of 72 h, MTT dye (3-(4,5-dimethylthiazol-2-yl)-2,5-diphenyl-2H-tetrazolium bromide) was added and further incubate it for 3–4 h. Amphotericin B, pantamidine and miltefosine were used as the positive control, untreated promastigotes were used as negative control moreover DMSO control was also added in the study as a stock solution of the compounds that were prepared in DMSO. All the experiments were performed in triplicates. After completion of the experiment the absorbance by Multiskan ascent plate reader at 452 nm and percent inhibition was calculated by the following formula.
# (§4) Cytotoxic concentration (%) = [100- (Absorbance of test)/ (Absorbance of solvent control) ×100] %.
# L. major promastigotes = assay: Promastigote growth inhibition assay (MTT), L. major; format: cell-based, Leishmania major; conditions: for anti-leishmanial activity against promastigotes of L. major (in words): in vitro
# Procedure: as §2, §3, §4
# [5] = system: MIL-resistant L. tropica promastigotes; assay: Growth inhibition assay (MTT) against MIL-resistant line; format: cell-based, Leishmania tropica; conditions: 72 h
# Procedure: as §3, §4
# Promastigote cultures tL. tropica (Clinical isolates) were maintained at 26°C in RPMI-1640 medium containing 15% FBS and 1% penicillin–streptomycin mixture.
# Generation of miltefosine-unresponsive strain was carried under high MIL pressure by in vitro passage with a stepwise increase in the MIL concentration. At each step, parasites were cultured and passaged every 3–4 days at an initial concentration of 5x10^5 promastigotes/mL in order to achieve -stable growth as compared to the wildtype isolate. Growth rates were measured for resistant populations and compared with the WT strain. Parasites were counted at an initial concentration of 5x10^5 parasites/mL and growth was measured daily using a Neubauer chamber until the population reached the stationary phase. Furthermore, the fluorescence microscopic investigations via DAPI stain were also carried out to supplement the study.
# [6] = system: BJ (human fibroblast) cells; assay: Cytotoxicity (MTT) against BJ cell line; format: cell-based; conditions: for IC50: Homo sapiens, Fibroblast, cytotoxicity of compounds 1-9, read-out: BJ (human fibroblast) IC50 (μM± SD)
# Procedure: as §1, with “The medium was removed after overnight incubation, and 200 μL of fresh medium was added with different concentrations of compounds (1–30 μM).” left out
# [7] = Cytotoxicity (MTT) against BJ cell line; format: cell-based, human; conditions: pure compounds; human fibroblast, 48 h; read-out: BJ cell line CC50 (μM± SD)
# Procedure: as §1, with “The medium was removed after overnight incubation, and 200 μL of fresh medium was added with different concentrations of compounds (1–30 μM).” left out
SMILES,IC50 [1] [µg/mL],IC50 [2] [µg/mL],L. tropica SI (CC50/ IC50) ([3]; CC50 3T3 cell line / IC50 L. tropica),IC50 [3] [µM],CC50 [4] [µM],L. tropica SI (CC50/ IC50) (L. tropica promastigotes; CC50 3T3 mouse fibroblast cell line / IC50 L. tropica),L. tropica SI (CC50/ IC50) (L. tropica promastigotes; CC50 BJ fibroblast cell line / IC50 L. tropica),"IC50 (L. tropica promastigotes; Leishmania tropica, pure compounds, standard drugs, promastigotes, clinical isolate, 72 h, read-out: L. tropica IC50 (μM± SD)) [µM]",L. major SI (CC50/ IC50) (L. major promastigotes; CC50 3T3 mouse fibroblast cell line / IC50 L. major),L. major SI (CC50/ IC50) (L. major promastigotes; CC50 BJ fibroblast cell line / IC50 L. major),"IC50 (L. major promastigotes; Leishmania major, pure compounds, standard drugs, promastigotes, 72 h, read-out: L. major IC50 (μM± SD)) [µM]",anti-leishmanial activity against promastigotes of L. major (in words) (L. major promastigotes),"MIL Resistant L. tropica IC50 (μM± SD) ([5]; miltefosine-unresponsive strain, promastigotes)",L. major SI (CC50/ IC50) ([6]; CC50 BJ cell line / IC50 L. major),IC50 [6] [µM],CC50 [7] [µM],"L. tropica IC50 (μM± SD) (L. tropica promastigotes; pure compounds, standard drugs, promastigotes, clinical isolate, 72 h)","L. major IC50 (μM± SD) (L. major promastigotes; pure compounds, standard drugs, promastigotes, 72 h)","IC50 ([5]; Leishmania tropica, read-out: MIL Resistant L. tropica IC50 (μM± SD)) [µM]"
COc1cccc2c1C(=O)c1c(O)c3c(c(O)c1C2=O)C[C@@](O)(C(=O)CO)C[C@@H]3O[C@H]1C[C@H](N)[C@H](O)[C@H](C)O1 [Doxorubicin],0.1 ± 0.02,0.1 ± 0.02,,,,,,,,,,,,,,,,,
"C=C1C(=O)OC2CC1(C)C1C(=O)C3(O)OC14C(O)(CCC1C3CC3OC35CC=CC(=O)C15C)C(=O)OC24C (stereo not drawn) [Compound 6, 5β, 6β-epoxyphysalin C]",,,0.025,0.6 ± 0.04,0.6 ± 0.04,0.025,4.20,23.8 ± 1.1,0.007,1.19,84.8 ± 1.56,no significant activity,inactive,1.19,10.4 ± 1,> 100,,,
"CCOC12CC=CC(=O)C1(C)C1CCC3(O)C(=O)OC4(C)C5CC6(C)C(COC7(OC34C6C7=O)C1CC2O)C(=O)O5 (stereo not drawn) [Compound 4, 5α-ethoxy-6ß-hydroxy-5,6-dihydrophysalin B]",,,,19.6 ± 0.8,19.6 ± 0.8,,,,,,,no significant activity,,,< 50,14.2 ± 0.8,Inactive,Inactive,74.7 ± 0.81

# Source: paper PMC9704608, “Anti-leishmanial physalins—Phytochemical investigation, in vitro evaluation against clinical and MIL-resistant L. tropica strains and in silico studies” (PLOS ONE, 2022)
